Results: US4897483A, “Amino acid derivatives as antihypertensives” (Asahi Breweries Ltd., priority 1987, dated 1990)

Assays:
[1] = tested on: pressor response to Angiotensin I (AI); experiment: Inhibition of the pressor response to angiotensin I after i.v. administration, area under the AI inhibition response vs. time curve; type: in vivo; design: unit not given beside the values; conditions: test compound 50 μg/Kg i.v.; AI 300 ng/Kg into femoral vein; 0 to 360 min
Description: **Angiotensin I (AI, 300 ng/Kg) were injected into the femoral vein at
intervals of 10 min until the constant pressor response to AI was
180, 300 and 360 min after i.v. administration of the test compound (50
μg/Kg), and AVC (area under the curve) was calculated by the AI
inhibition response vs. time curves for 0 to 360 min.

rabbit lung ACE = biological target: T1, rabbit lung ACE (Oryctolagus cuniculus, UniProt P12822); experiment: Inhibition of rabbit lung ACE by the method of Friedland and Silverstein; type: biochemical; conditions: read-out: IC50 (concentration inhibiting 50% of the activity of rabbit lung ACE)
T1 construct: activity of rabbit lung ACE; from tissue; host or cells: rabbit lung
T1 sequence (P12822 34-1310): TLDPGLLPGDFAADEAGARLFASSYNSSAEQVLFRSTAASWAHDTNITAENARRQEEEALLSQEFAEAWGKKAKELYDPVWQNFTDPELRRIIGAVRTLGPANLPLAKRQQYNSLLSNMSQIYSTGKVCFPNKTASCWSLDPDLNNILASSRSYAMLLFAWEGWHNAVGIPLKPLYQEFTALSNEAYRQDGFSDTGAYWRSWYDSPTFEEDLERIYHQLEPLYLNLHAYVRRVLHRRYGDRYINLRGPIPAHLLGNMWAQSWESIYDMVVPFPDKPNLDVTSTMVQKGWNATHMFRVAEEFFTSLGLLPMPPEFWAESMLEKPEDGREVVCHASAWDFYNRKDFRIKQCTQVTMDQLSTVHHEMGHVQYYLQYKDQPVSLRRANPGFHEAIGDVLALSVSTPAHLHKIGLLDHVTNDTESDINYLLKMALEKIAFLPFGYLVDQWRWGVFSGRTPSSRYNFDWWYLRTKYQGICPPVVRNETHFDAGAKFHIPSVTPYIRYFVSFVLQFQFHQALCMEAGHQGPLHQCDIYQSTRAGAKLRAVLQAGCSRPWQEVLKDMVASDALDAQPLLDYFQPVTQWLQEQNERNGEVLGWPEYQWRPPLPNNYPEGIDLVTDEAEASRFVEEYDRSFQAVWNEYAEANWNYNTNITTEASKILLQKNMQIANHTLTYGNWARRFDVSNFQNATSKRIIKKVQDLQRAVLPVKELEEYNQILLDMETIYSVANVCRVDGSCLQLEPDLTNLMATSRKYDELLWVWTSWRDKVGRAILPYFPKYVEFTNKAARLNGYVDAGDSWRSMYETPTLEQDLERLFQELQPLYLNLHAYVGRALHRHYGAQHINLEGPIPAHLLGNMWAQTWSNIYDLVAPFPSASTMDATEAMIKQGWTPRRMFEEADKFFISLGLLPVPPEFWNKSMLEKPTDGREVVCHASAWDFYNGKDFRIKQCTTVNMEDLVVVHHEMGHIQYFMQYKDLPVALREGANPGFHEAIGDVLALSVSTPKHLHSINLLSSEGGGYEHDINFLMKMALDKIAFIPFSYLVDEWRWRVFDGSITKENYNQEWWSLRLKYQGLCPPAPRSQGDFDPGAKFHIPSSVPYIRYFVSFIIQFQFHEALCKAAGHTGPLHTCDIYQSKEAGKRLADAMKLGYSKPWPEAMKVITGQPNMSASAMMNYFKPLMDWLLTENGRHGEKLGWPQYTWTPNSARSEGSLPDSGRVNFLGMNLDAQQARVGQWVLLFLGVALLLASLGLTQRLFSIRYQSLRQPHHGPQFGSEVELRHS
Description: The evaluation of converting enzyme inhibitors is introduced from the analysis of enzyme inhibition in a test tube. One example of inhibition activity of the compounds of the present invention calculated from the method of Friedland & Silverstein [Am. J. Clin. Pathol.
*Concentration inhibiting 50% of the activity of rabbit lung ACE was
determined by the method of Friedland and Silverstein.

Compound | (iv) AUC (area under the AI inhibition response vs. time curve) [1] | IC50 (rabbit lung ACE)
C[C@H](N[C@@H](CCCCCCCN)C(=O)O)C(=O)N1CCC[C@H]1C(=O)O [Compound 1, N-[1(S)-carboxy-8-aminooctyl]-L-alanyl-L-proline] | 509 | 0.75 nM
C[C@H](N[C@@H](CCCCC1CCNCC1)C(=O)O)C(=O)N1CCC[C@H]1C(=O)O [Compound 2, N-[1(S)-carboxy-5-(4-piperidyl)pentyl]-L-alanyl-L-proline] | 429 | 1 nM
C[C@H](N[C@@H](CCCCCC1CCNCC1)C(=O)O)C(=O)N1CCC[C@H]1C(=O)O [Compound 3, N-[1(S)-carboxy-6-(4-piperidyl)hexyl]-L-alanyl-L-proline] | 424 | 1.1 nM
NCCCCCCC[C@H](N[C@@H](CCCCN)C(=O)N1CCC[C@H]1C(=O)O)C(=O)O [Compound 4, N^α -[1(S)-carboxy-8-aminooctyl]-L-lysyl-L-proline] | 431 | 0.7 nM
NCCCC[C@H](N[C@@H](CCCCC1CCNCC1)C(=O)O)C(=O)N1CCC[C@H]1C(=O)O [Compound 5, N^α -[1(S)-carboxy-5-(4-piperidyl)pentyl]-L-lysyl-L-proline] | 460 | 1 nM
NCCCC[C@H](N[C@@H](CCCCCC1CCNCC1)C(=O)O)C(=O)N1CCC[C@H]1C(=O)O [Compound 9, N^α -[1(S)-carboxy-6-(4-piperidyl)hexyl]-L-lysyl-L-proline] | – | 1 nM
C[C@H](N[C@@H](CCCCCC1CCNCC1)C(=O)O)C(=O)N1[C@H](C(=O)O)C[C@@H]2CCCC[C@@H]21 [Compound 10, 1-[N-[1(S)-carboxy-6-(4-piperidyl)hexyl]-L-alanyl]-(2α,3aβ,7aβ)-octahydro-1H-indole-2(S)-carboxylic acid] | – | 0.9 nM
C[C@H](N[C@@H](CCCCC1CCNCC1)C(=O)O)C(=O)N1[C@H](C(=O)O)C[C@@H]2CCCC[C@@H]21 [Compound 11, 1-[N-[1(S)-carboxy-5-(4-piperidyl)pentyl]-L-alanyl]-(2α,3aβ,7aβ)-octahydro-1H-indole-2(S)-carboxylic acid] | – | 0.62 nM
CC(NC(CCCCCCN)C(=O)O)C(=O)N1CCCC1C(=O)O (stereo not drawn) [Compound 12, reference compound] | 368 | 1.4 nM
